Numbers after ± are expanded uncertainties.
What was measured:
[1] = for Normal melting temperature: Crystal, DTA
[2] = Molar enthalpy of transition or fusion; conditions: Crystal; DSC

CCCCCCCCCCCCCCO [1-tetradecanol]
Normal melting temperature [1]: 37.56 ± 0.91 °C
Molar enthalpy of transition or fusion [2]: 10.4 ± 1.24 kcal/mol

CCCCCCCCCCO [decan-1-ol]
Triple point temperature ([1]; Crystal 2, DSC): 275.64 ± 4.1 K
Normal melting temperature [1]: 6.69 ± 0.55 °C
Molar enthalpy of transition or fusion [2]: 7.06 ± 0.932 kcal/mol

CCCCCCCCCC(=O)O [decanoic acid]
Normal melting temperature [1]: 32.07 ± 0.49 °C
Molar enthalpy of transition or fusion [2]: 6.25 ± 0.287 kcal/mol

CCCCCCCCCCCCCCCC(=O)OCC(COC(=O)CCCCCCCCCCCCCCC)OC(=O)CCCCCCCCCCCCCCC [1,2,3-propanetriyl tri(hexadecanoate)]
Normal melting temperature [1]: 66.29 ± 0.65 °C
Molar enthalpy of transition or fusion [2]: 38.3 ± 2.1 kcal/mol

CCCCCCCCCCCCCCCC(=O)O [hexadecanoic acid]
Normal melting temperature [1]: 64.02 ± 0.55 °C
Molar enthalpy of transition or fusion [2]: 11.7 ± 0.645 kcal/mol

CCCCCCCCCCCCCC(=O)O [tetradecanoic acid]
Normal melting temperature [1]: 55.90 ± 0.73 °C
Molar enthalpy of transition or fusion [2]: 9.92 ± 1.63 kcal/mol

CCCCCCCCCCCCCCCCCC(=O)O [octadecanoic acid]
Normal melting temperature [1]: 70.48 ± 0.49 °C
Molar enthalpy of transition or fusion [2]: 13.4 ± 1.12 kcal/mol

CCCCCCCCCCCC(=O)O [dodecanoic acid]
Normal melting temperature [1]: 45.4 ± 0.65 °C
Molar enthalpy of transition or fusion [2]: 7.99 ± 0.621 kcal/mol

CCCCCCCCCCCCO [dodecan-1-ol]
Normal melting temperature [1]: 24.63 ± 0.39 °C
Molar enthalpy of transition or fusion [2]: 7.53 ± 2.13 kcal/mol

From the NIST ThermoML archive (doi:10.1016/j.fluid.2019.05.020)
